From patent publication US20150328193A1, “TREATMENT OF MTOR HYPERACTIVE RELATED DISEASES AND DISORDERS” (THE BRIGHAM AND WOMEN'S HOSPITAL, INC., priority 2012, published 2015)
Counter-ions that a name gives are not always drawn.

What was measured:
[1] = system: 621-101 cells (TSC2-null, derived from a LAM patient); test: High-throughput screen of known bioactives in 621-101 cells, ATP levels ([…] GLO) as cell viability, with or without rapamycin pretreatment; format: cell-based, human; conditions: for Inducing cell death in TSC2-null LAM cells as single agent: used individually in the absence of rapamycin; for Synergy with rapamycin to bring about apoptosis in TSC2-null LAM cells: combination with rapamycin; for Normalized ATP levels drug alone (A) / Normalized ATP levels rapa + drug (B): 621-101 cells, 48-72 h; for Normalized ATP levels drug alone (A): DMSO pretreatment; for Normalized ATP levels rapa + drug (B): rapamycin (20 nM) pretreatment two hours plus drug; for ATP Fold Change (B):(A): ratio of rapa + drug to drug alone
Procedure: Rapamycin was used at 20 nM and the screen compounds at 20 uM.
Cells are then pretreated with either Rapamycin (20 nM) or DMSO control in duplicate for two hours. Compound libraries are then added at the ICCB and allowed to incubate for 48-72 h. […] Treatment with staurosporine (1-2 uM) represents a positive control for cell death.
The inventors screened the Known Bioactives Collection at the ICCB which consists of approximately 7,000 compounds.

Aurora-A = target: T1, Aurora-A (Homo sapiens, UniProt O14965); conditions: cited from earlier work
T1 sequence (O14965 1-403): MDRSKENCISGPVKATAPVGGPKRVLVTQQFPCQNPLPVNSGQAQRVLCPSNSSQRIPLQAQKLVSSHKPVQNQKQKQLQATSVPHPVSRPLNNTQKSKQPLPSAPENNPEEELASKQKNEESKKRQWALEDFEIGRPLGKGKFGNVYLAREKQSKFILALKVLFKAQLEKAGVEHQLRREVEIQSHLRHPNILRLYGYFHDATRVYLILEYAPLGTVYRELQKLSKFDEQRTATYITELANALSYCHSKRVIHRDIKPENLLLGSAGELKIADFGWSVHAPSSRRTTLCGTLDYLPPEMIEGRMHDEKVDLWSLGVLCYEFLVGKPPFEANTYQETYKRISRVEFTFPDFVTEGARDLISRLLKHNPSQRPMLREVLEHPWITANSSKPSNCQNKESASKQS

JAK2 kinase = JAK2 kinase (Homo sapiens, UniProt O60674); conditions: in vitro; cited from earlier work
TrkA = TrkA (Homo sapiens, UniProt P04629); conditions: cited from earlier work
FAK = FAK (Homo sapiens, UniProt Q05397); conditions: cited from earlier work
[2] = system: Tsc2-null mouse embryonic fibroblasts (MEFs); test: Chelerythrine chloride treatment of Tsc2-null mouse embryonic fibroblasts; format: cell-based; conditions: 10 uM, 30 hours
621-101 cells = test: Follow-up imaging of cell death/proliferation in 621-101 cells; format: cell-based, human
Procedure: 621-101 cells were pretreated for two hours with either DMSO (top two panels) or rapamycin (20 nM) bottom two panels) followed by the addition of fresh DMSO (top left), fresh rapamycin (bottom left), chelerythrine chloride (1 uM, top right), or rapamycin and chelerythrine chloride (bottom right). […] 4× magnification.

protein kinase C (PKC) = conditions: cited from earlier work
[3] = system: wild-type mouse embryonic fibroblasts (MEFs); test: Chelerythrine chloride treatment of wild-type mouse embryonic fibroblasts; format: cell-based; conditions: 10 uM, 30 hours
[4] = system: ELT3-V3 (TSC2-deficient) cells; test: Paroxetine treatment of ELT3-V3 (TSC2-deficient) versus ELT3-T3 (re-expressing TSC2) cells; format: cell-based, Eker rat; design: dose or concentration left out as unconfirmed; conditions: 24 hrs
Procedure: […] TSC2-deficient uterine leiomyoma cells derived from the Eker rat model of TSC, ELT3-V3 (TSC2-deficient) and ELT3-T3 (re-expressing TSC2) were treated with […] of DMSO or Paxil for 24 hrs.

[5] = Rapamycin 20 nM, screen compounds 20 uM

Chain of FAK (Q05397 whole entry, species assumed): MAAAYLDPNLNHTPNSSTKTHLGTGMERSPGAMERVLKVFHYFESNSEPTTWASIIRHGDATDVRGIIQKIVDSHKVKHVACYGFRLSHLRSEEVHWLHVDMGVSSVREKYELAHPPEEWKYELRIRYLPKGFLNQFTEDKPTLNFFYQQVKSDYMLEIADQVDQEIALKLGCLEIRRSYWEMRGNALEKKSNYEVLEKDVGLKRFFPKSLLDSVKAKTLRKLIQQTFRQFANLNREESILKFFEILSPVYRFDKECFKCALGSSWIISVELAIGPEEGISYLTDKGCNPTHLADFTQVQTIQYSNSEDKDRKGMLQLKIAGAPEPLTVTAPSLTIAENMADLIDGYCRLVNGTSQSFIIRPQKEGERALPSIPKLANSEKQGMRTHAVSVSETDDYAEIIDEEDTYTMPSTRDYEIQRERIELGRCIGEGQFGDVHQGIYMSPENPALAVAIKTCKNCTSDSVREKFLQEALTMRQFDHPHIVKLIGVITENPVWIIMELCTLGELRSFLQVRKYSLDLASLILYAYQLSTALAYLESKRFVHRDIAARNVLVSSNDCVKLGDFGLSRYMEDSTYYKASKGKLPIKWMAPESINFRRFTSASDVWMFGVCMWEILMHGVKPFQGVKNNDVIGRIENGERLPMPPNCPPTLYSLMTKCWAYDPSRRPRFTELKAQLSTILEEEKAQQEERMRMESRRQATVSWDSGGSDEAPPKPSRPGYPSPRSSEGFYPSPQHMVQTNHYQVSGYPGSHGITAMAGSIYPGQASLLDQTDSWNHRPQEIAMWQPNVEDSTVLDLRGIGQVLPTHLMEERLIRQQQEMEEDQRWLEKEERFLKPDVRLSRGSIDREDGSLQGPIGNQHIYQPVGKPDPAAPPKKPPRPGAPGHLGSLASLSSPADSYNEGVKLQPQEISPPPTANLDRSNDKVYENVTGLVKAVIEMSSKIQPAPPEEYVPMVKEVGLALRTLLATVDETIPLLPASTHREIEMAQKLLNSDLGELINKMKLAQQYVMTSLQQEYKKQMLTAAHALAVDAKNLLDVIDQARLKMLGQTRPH
Chain of TrkA (P04629 33-796, species assumed): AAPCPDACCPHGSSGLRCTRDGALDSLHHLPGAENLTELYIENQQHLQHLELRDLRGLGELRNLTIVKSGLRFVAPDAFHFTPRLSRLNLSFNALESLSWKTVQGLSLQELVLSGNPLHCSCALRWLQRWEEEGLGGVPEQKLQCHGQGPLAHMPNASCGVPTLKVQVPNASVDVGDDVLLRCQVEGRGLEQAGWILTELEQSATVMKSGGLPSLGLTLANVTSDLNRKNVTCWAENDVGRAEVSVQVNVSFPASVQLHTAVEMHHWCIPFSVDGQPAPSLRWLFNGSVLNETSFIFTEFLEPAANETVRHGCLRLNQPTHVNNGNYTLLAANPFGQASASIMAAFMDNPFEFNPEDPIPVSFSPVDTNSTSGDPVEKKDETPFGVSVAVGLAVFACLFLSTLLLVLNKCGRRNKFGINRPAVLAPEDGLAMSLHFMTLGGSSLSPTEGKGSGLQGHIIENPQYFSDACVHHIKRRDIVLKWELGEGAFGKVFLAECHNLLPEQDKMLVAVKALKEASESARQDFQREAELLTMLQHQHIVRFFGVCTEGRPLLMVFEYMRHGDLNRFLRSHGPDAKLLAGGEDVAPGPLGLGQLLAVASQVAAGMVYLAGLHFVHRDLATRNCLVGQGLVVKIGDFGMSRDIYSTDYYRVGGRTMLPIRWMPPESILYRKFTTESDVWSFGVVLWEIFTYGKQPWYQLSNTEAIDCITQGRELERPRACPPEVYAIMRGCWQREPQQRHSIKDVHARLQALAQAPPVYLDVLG
Chain of JAK2 kinase (O60674 whole entry): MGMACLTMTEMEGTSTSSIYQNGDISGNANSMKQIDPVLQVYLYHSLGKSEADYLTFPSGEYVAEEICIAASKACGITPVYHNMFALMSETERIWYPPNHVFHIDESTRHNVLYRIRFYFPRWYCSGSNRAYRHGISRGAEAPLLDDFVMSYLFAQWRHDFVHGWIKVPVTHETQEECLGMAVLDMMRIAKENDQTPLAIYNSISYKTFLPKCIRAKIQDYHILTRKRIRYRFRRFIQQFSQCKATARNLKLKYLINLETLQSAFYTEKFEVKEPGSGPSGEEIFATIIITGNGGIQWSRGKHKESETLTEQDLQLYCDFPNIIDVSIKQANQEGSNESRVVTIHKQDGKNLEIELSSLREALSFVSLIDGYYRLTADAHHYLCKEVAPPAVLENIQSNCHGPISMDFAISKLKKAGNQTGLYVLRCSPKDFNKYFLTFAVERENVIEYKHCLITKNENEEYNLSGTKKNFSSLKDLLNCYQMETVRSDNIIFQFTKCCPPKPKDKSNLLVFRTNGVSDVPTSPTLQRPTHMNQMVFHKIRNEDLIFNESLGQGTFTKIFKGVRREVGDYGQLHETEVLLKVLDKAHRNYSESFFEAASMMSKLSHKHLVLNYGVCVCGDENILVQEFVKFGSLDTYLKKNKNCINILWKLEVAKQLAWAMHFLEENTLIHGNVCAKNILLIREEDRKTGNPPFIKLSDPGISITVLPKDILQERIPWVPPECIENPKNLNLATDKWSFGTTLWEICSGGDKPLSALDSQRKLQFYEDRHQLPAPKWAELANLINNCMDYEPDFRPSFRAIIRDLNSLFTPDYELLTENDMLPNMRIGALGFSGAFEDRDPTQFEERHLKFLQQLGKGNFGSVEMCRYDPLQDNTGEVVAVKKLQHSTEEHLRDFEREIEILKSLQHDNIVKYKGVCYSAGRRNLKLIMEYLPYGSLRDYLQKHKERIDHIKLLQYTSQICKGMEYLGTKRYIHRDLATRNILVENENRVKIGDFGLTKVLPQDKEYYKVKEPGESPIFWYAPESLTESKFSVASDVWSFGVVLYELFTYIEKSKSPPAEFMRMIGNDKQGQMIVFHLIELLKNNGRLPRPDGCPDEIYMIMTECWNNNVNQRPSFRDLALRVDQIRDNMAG

CNCCC(Oc1ccc(C(F)(F)F)cc1)c1ccccc1 (racemic) [fluoxetine, (RS)-N-methyl-3-phenyl-3-[4-(trifluoromethyl)phenoxy]propan-1-amine]
Inducing cell death in TSC2-null LAM cells as single agent [1]: surprisingly effective at inducing cell death

NC[C@@H]1O[C@H](C23CC4CC(CC(C4)C2)C3)Cc2c1ccc(O)c2O [A-77636]
Inducing cell death in TSC2-null LAM cells as single agent [1]: surprisingly effective at inducing cell death

Cc1cc(Nc2nc(N[C@@H](C)c3ccc(F)cc3)c(C#N)cc2F)n[nH]1 [AZ-960]
IC50 (Aurora-A): ~100 nM | Ki (JAK2 kinase): 0.45 nM | IC50 (TrkA): ~100 nM | IC50 (FAK): ~100 nM | Synergize with rapamycin to cause cell death / decrease ATP levels (confirmed hits) [1, 5]: confirmed as hits | Synergy with rapamycin to bring about apoptosis in TSC2-null LAM cells [1]: worked synergistically with rapamycin

CCC1(c2ccc(N)cc2)CCC(=O)NC1=O (centres unmarked) [Aminoglutethimide]
Normalized ATP levels drug alone (A) [1]: 0.474 | Normalized ATP levels rapa + drug (B) [1]: 1.264 | ATP Fold Change (B):(A) [1]: 2.7 (Anticonvulsant) | Inducing cell death in TSC2-null LAM cells as single agent [1]: surprisingly effective at inducing cell death

O=C(Nc1cccc(Nc2ncc(Br)c(NCCc3cnc[nH]3)n2)c1)N1CCCC1 [BX912, N-(3-(4-(2-(1H-imidazol-5-yl)ethylamino)-5-bromopyrimidin-2-ylamino)phenyl)pyrrolidine-1-carboxamide]
Synergy with rapamycin to bring about apoptosis in TSC2-null LAM cells [1]: worked synergistically with rapamycin

CC(C)NCC(O)COc1ccc(CCOCC2CC2)cc1 (centres unmarked) [Betaxolol HCl]
Normalized ATP levels drug alone (A) [1]: 0.487 | Normalized ATP levels rapa + drug (B) [1]: 1.27 | ATP Fold Change (B):(A) [1]: 2.6 (β blocker) | Inducing cell death in TSC2-null LAM cells as single agent [1]: surprisingly effective at inducing cell death

OCCN1CCN(CC/C=C2/c3ccccc3Sc3ccc(C(F)(F)F)cc32)CC1 [Flupenthixol 2HCl]
Normalized ATP levels drug alone (A) [1]: 0.273 | Normalized ATP levels rapa + drug (B) [1]: 0.776 | ATP Fold Change (B):(A) [1]: 2.8 (Anti-psychotic) | Inducing cell death in TSC2-null LAM cells as single agent [1]: surprisingly effective at inducing cell death

OCCN1CCN(CCCN2c3ccccc3Sc3ccc(C(F)(F)F)cc32)CC1 [Fluphenazine 2HCl]
Normalized ATP levels drug alone (A) [1]: 0.069 | Normalized ATP levels rapa + drug (B) [1]: 0.191 | ATP Fold Change (B):(A) [1]: 2.8 (Anti-psychotic) | Inducing cell death in TSC2-null LAM cells as single agent [1]: surprisingly effective at inducing cell death

CCC1(c2ccccc2)NC(=O)N(C)C1=O (centres unmarked) [Mephenytoin]
Normalized ATP levels drug alone (A) [1]: 0.425 | Normalized ATP levels rapa + drug (B) [1]: 1.17 | ATP Fold Change (B):(A) [1]: 2.8 (Anticonvulsant) | Inducing cell death in TSC2-null LAM cells as single agent [1]: surprisingly effective at inducing cell death

CN(C)CCOc1ccc(-c2nc(-c3ccncc3)c(-c3ccc4c(c3)CC/C4=N\O)[nH]2)cc1 [SB-590885]
Synergize with rapamycin to cause cell death / decrease ATP levels (confirmed hits) [1, 5]: confirmed as hits | Synergy with rapamycin to bring about apoptosis in TSC2-null LAM cells [1]: worked synergistically with rapamycin

C/N=c1\nc(-c2ccccc2)n(-c2ccccc2)s1 [SCH-202676 hydrobromide, (N-(2,3-diphenyl-1,2,4-thiadiazol-5-(2H)-ylidene)methanamine) hydrobromide]
Synergize with rapamycin to cause cell death / decrease ATP levels (confirmed hits) [1, 5]: confirmed as hits | Synergy with rapamycin to bring about apoptosis in TSC2-null LAM cells [1]: worked synergistically with rapamycin

OCc1cc(C(O)CNCCCCCCOCCCCc2ccccc2)ccc1O (centres unmarked) [Salmeterol]
Normalized ATP levels drug alone (A) [1]: 0.184 | Normalized ATP levels rapa + drug (B) [1]: 0.456 | ATP Fold Change (B):(A) [1]: 2.5 (β blocker) | Inducing cell death in TSC2-null LAM cells as single agent [1]: surprisingly effective at inducing cell death

C[CH2][Hg][S]c1ccccc1C(=O)[O-].[Na+] [Thimerosal, Ethyl(2-mercaptobenzoato-(2-)-O,S) mercurate(1-) sodium]
Synergy with rapamycin to bring about apoptosis in TSC2-null LAM cells [1]: worked synergistically with rapamycin

COc1ccc2c(c1)CC[C@@H]1[C@@H]2CC[C@]2(C)[C@@H](NCCCCCCN3C(=O)CCC3=O)CC[C@@H]12 [U-73343, 1-[6-[((17β)-3-Methoxyestra-1,3,5[10]-trien-17-yl)amino]hexyl]-2,5-pyrrolidinedione]
Synergy with rapamycin to bring about apoptosis in TSC2-null LAM cells [1]: worked synergistically with rapamycin

COc1ccc2c(c[n+](C)c3c4cc5c(cc4ccc23)OCO5)c1OC [chelerythrine chloride]
Effect on Tsc2-null MEFs [2]: dramatic effect | Selectivity for Tsc2-null versus wild-type MEFs [2]: selective to Tsc2-null cells | Effect on 621-101 cells in combination with rapamycin (621-101 cells; 24 h, 1 uM, rapamycin 20 nM pretreatment two hours): effect on cells is reduced | 621-101 cell proliferation (621-101 cells; 24 h post drug exposure, 1 uM, DMSO pretreatment): inhibits 621-101 cell proliferation | 621-101 cell proliferation (621-101 cells; 96 h post drug exposure): inhibits 621-101 cell proliferation | IC50 (protein kinase C (PKC)): 660 nM | Effect on wild-type MEFs [3]: minimal effect | Effect alone versus in combination with rapamycin (single agent potential) [1, 5]: protected by rapamycin | Inducing cell death in TSC2-null LAM cells as single agent [1]: surprisingly effective at inducing cell death

CO[C@@H](C(=O)N1Cc2[nH]nc(NC(=O)c3ccc(N4CCN(C)CC4)cc3)c2C1)c1ccccc1 [danusertib (PHA-739358)]
Synergize with rapamycin to cause cell death / decrease ATP levels (confirmed hits) [1, 5]: confirmed as hits | Synergy with rapamycin to bring about apoptosis in TSC2-null LAM cells [1]: worked synergistically with rapamycin

C[C@H](CCC(=O)O)C[C@H](C)C[C@H](C)C(=O)/C=C(\O)[C@H](C)C[C@H](C)C/C=C/[C@@H](C)[C@@H](O)[C@@H](C)[C@@H](O)C[C@@H]1CC[C@@](C)([C@H]2CC[C@@](C)([C@@H](C)O)O2)O1 [ionomycin]
Synergy with rapamycin to bring about apoptosis in TSC2-null LAM cells [1]: worked synergistically with rapamycin

COC(=O)C1=C(C)NC(C)=C(C(=O)OCCN(C)Cc2ccccc2)C1c1cccc([N+](=O)[O-])c1 (centres unmarked) [nicardipine]
Synergy with rapamycin to bring about apoptosis in TSC2-null LAM cells [1]: worked synergistically with rapamycin

CNCCC=C1c2ccccc2CCc2ccccc21 [nortriptyline, 3-(10,11-dihydro-5H-dibenzo[a,d]cyclohepten-5-ylidene)-N-methyl-1-propanamine]
Inducing cell death in TSC2-null LAM cells as single agent [1]: surprisingly effective at inducing cell death

Fc1ccc([C@@H]2CCNC[C@H]2COc2ccc3c(c2)OCO3)cc1 [paroxetine, (3S,4R)-3-[(2H-1,3-benzodioxol-5-yloxy)methyl]-4-(4-fluorophenyl)piperidine]
Apoptosis of ELT3-V3 (TSC2-deficient) cells [4]: susceptible to Paxil induced apoptosis | Selectivity for TSC2-deficient ELT3-V3 versus ELT3-T3 cells [4]: selective to Tsc2-null cells | Inducing cell death in TSC2-null LAM cells as single agent [1]: surprisingly effective at inducing cell death

CO[C@H]1C[C@@H]2CC[C@@H](C)[C@@](O)(O2)C(=O)C(=O)N2CCCC[C@H]2C(=O)O[C@H]([C@H](C)C[C@@H]2CC[C@@H](O)[C@H](OC)C2)CC(=O)[C@H](C)/C=C(\C)[C@@H](O)[C@@H](OC)C(=O)[C@H](C)C[C@H](C)/C=C/C=C/C=C/1C [rapamycin]
Cell death in 621-101 cells (621-101 cells; FIG. 1): does not induce cell death

CN1CCN(CCCN2c3ccccc3Sc3ccc(C(F)(F)F)cc32)CC1 [trifluoperazine, 10-[3-(4-methylpiperazin-l-yl)propyl]-2-(trifluoromethyl)-10H-phenothiazine]
Inducing cell death in TSC2-null LAM cells as single agent [1]: surprisingly effective at inducing cell death

(7R)-7-(Acetyloxy)-4-hydroxy-N,N,N-trimethyl-3,5,9-trioxa-4-phosphapentacosan-1-aminium-4-oxide [PAF C16]
Synergy with rapamycin to bring about apoptosis in TSC2-null LAM cells [1]: worked synergistically with rapamycin
